Assays:
CSC markers mRNA = test: Real-time PCR of CSC marker mRNA; format: cell-based, human; details: 6 hours following treatment
Protocol: Real-Time PCR Analysis. Total RNA was isolated using the mirVana™ miRNA Isolation Kit (Life technologies, Grand Island, N.Y.). 1 μg total RNA was reverse transcribed using First-Strand cDNA Synthesis Kit using hexamer reverse primer (Affymetrix). Real time QPCR was performed using RT^2 SYBR® Green qPCR Master mix (Qiagen) in a 7500 fast real time machine (Applied Biosystem). Relative expressions of mRNA were calculated using ΔΔCT methods using GAPDH as a loading control.

[1] = system: HCT-116 cells, grown in spheroid condition; test: Apoptosis assay (annexin V/propidium iodide and acridine orange/ethidium bromide); format: cell-based, human
Protocol: Apoptosis Assay. Human colon cancer HCT-116 cells, grown in spheroid condition were treated with vehicle or NSGMs for 24 hours. Following which cells were trypsinized and single cells were re-suspended at 10^6 cells/mL in PBS buffer. Two different methods were used to assess apoptosis induction. In the first methods, cells were incubated with propidium iodide and Annexin V-APC (ebioscience) and flow cytometric analyses were performed as above. […] Briefly, a small volume of cell suspension was mounted on a glass slide and incubated with 1 μl of AO/EB solution and mixed gently just prior to microscopy and quantification. At least 500 cells in 10-15 fields were examined in each sample using Nikon ECLIPSE E800M fluorescence microscope using 20× objective. […] The data was expressed as apoptosis index=[([apoptotic cells (NSGMs)/total cells (NSGMs)]/[apoptotic cells (vehicle)/total cells (vehicle)]).

HCT116 cells = test: Mice tumor xenograft model, intratumoral G2.2; format: in vivo, NOD-SCID mice
Protocol: One million HCT116 cells were washed with PBS and injected subcutaneously (0.2 mL cell suspension in 50% matrigel) into 6-week-old NOD-SCID mice (Taconic Incorporation, Germantown, N.Y.) on both flanks. Once the tumors become palpable, 16 mice were randomized into two groups. In the treatment group, animals received direct intratumoral (IT) injection of appx 1.125 mg of G2.2 dissolved in 75 μl PBS (pH=7.4) solution three times a week for three weeks (a total of 10 mg of G2.2 over three weeks). Control animals were also received IT injection with 75 μl of vehicle alone (PBS) on the same schedule. Tumor size was measured three times a week using caliber and tumor volume was calculated as previously described. Mice were also weighed three times a week. All the animals were sacrificed within 1 week after completion of therapy using approved method of CO2 asphyxiation. Tumor xenografts were minced with scalpels blade into small pieces and then digested in DMEM/F12 medium containing 300 units/mL collagenase (Stem Cell Technologies) and 100 units/mL hyaluronidase (Stem Cell Technologies) for 1 hr at 37° C. Cells were then washed and re-suspended to a final concentration of 10^6 cell/mL in DMEM/2% FBS. Cell suspensions from the tumor samples were incubated with PE conjugated LGR5 or CXCR4 antibody for 30 minutes and washed two times with PBS buffer and then analyzed (FIG. 18A-B). […] However, none of these values were statistically significant (p>0.1).

HT-29 cells [2] = test: Primary (1°) colonosphere formation assay, HT-29 (Screen 1); format: cell-based, human; details: steep dose-response profile; read-out: apparent IC50 for primary spheroid inhibition
Protocol: (§1) Primary (1°) Colonosphere Formation Assay. For primary sphere formation, cells were plated in non-treated, low adhesion, 96 wells plate at the concentration of 100 cells/100 μL/well in stem cell media (SCM) that consisted of DMEM:F12:AA (Gibco), supplemented with 1×B27 (Gibco), 20 ng/mL epidermal growth factor and 10 ng/mL fibroblast growth factor (Sigma). After four hour of incubation, vehicle (control) or NSGM at the desired concentrations were added to each well (at least in triplicates for each sample). On day five, numbers of spheres ranging from […] in diameter were counted using phase contrast microscope and percent inhibition was calculated compared to control.
(§2) In this screen, sulfated NSGMs that inhibit HT-29 growth under spheroid conditions, but not under monolayer conditions, were then assessed for retention of 2° and 3° spheroid growth inhibition profiles in the absence of NSGM. The latter screen is of particular importance as primary spheroid growth although selective for CSCs doses not distinguish between non self-renewing progenitors and self-renewing CSCs. […] These 11 NSGMs belonged to G2, G4, G11 and G12 scaffolds but only four of the six G2 molecules, one of the two G4, four of the seven G11 and two of the five G12 molecules satisfied the first screen.

HCT-116 = test: Primary spheroid formation assay, HCT-116; format: cell-based, human; details: HCT-116 (p53 null)
Protocol: as §1, §2

[3] = system: CSC markers CD44, CD133, EpCAM, LGR5, CXCR-4; test: Western blot of CSC markers in HT-29 spheroids; format: cell-based, human; details: 100 μM; for reduction of expression of CSC markers (CD44, CD133, EpCAM, LGR5, CXCR-4): HT-29 spheroids, Western blot densitometry vs vehicle
Protocol: (§3) Western Blotting Analysis. Western blot analysis was performed according to the standard protocol described in the literature. Briefly, HT-29 cells were plated in serum-free SCM in a low adhesion 6-well plate to obtain spheroids. Mature spheroids were treated on day 4 after plating, with vehicle or NSGMs for indicated time and cells were solubilized in lysis buffer (20 mM Na3PO4, 100 mM NaCl, 2 mM EDTA, 1% Nonidet P-40, 2.5 mM Na3VO4) containing protease (Roche) as well as phosphatase inhibitor cocktails (Sigma). Following centrifugation at 14,000 g for 15 min, the supernatant was used for Western blot analysis. In all analyses, protein concentration was determined by the Bio-Rad Protein Assay kit (Bio-Rad). Approximately 25-50 μg of protein was separated by polyacrylamide gel electrophoresis and was transferred to PVDF membrane (Bio-Rad). Blocking was done with 5% low fat milk powder for 1 hr followed by overnight incubation with primary antibody (dilution 1:1000): anti-CD44 (Cell Signaling), anti-EpCAM (Cell Signaling), anti-LGR5 (Origene), anti-CD133 ((Miltenyi Biotec), anti-CXCR4 (Abeam), anti-OCT4 (Cell Signaling), anti-BMI-1 (Millipore), anti-c-MYC (Millipore) and anti-CK20 (Abeam). This was followed by incubation with appropriate secondary antibody and protein bands were visualized using the enhanced chemiluminescence detection system and imaged with LAS-3000 Imaging System (FUJIFILM). Densitometry was determined by AIDA image analyzer software (Raytest) and results were calculated as relative intensity compared to control. All experiments were performed at least three times.

[4] = system: Panc-1 (pancreatic) cancer cell lines; test: Primary spheroid formation assay, Panc-1; format: cell-based, human
Protocol: as §1

HT-29 colon cancer cells = test: Cell cycle distribution in spheroid cells; format: cell-based, human; details: 24 hours, 100 μM, vs vehicle
CK20 = test: Differentiation assay (CK20 expression) in colonosphere cells; format: cell-based, human; details: spheroid cells on collagen, 2.5% serum, Western blot and immunocytochemistry
Protocol: Differentiation Assay. Single cell suspension from mature HT-29 colonosphere pre-treated with vehicle or G2.2 for 24 hours were plated on collagen coated glass cover slips or flasks in the presence of media supplemented with 2.5% FBS containing G2.2 or vehicle. At indicated time points, cells lysate was examined for CK-20 expression with western-blot as above. Alternatively, cells were fixed with 4% paraformaldehyde for 20 minutes at room temperature, permeabilized for 5 min in 0.5% Triton X-100 solution and blocked in PBS containing 1% BSA for one hour prior to incubation with anti-CK-20 antibody (Abeam) for 2 hours. Cells were then washed, incubated for 60 min with Alexa Fluor conjugate secondary antibodies, rinsed with blocking buffer and mounted on slides with DAPI containing ProLong® Gold Antifade Reagent (Invitrogen). Fluorescently labeled cells were examined using a Zeiss LSM700 laser scanning confocal microscope (Zeiss Micro imaging Inc.). Alexa Flour® 555 signals were imaged sequentially at 40× magnification in frame-interlaced mode to eliminate cross talk between channels.

[5] = Animal weight in mice tumor xenograft model; format: in vivo, NOD-SCID mice; details: intratumoral, appx 1.125 mg three times a week for three weeks
Protocol: One million HCT116 cells were washed with PBS and injected subcutaneously (0.2 mL cell suspension in 50% matrigel) into 6-week-old NOD-SCID mice (Taconic Incorporation, Germantown, N.Y.) on both flanks. Once the tumors become palpable, 16 mice were randomized into two groups. In the treatment group, animals received direct intratumoral (IT) injection of appx 1.125 mg of G2.2 dissolved in 75 μl PBS (pH=7.4) solution three times a week for three weeks (a total of 10 mg of G2.2 over three weeks). Control animals were also received IT injection with 75 μl of vehicle alone (PBS) on the same schedule. Tumor size was measured three times a week using caliber and tumor volume was calculated as previously described. Mice were also weighed three times a week. All the animals were sacrificed within 1 week after completion of therapy using approved method of CO2 asphyxiation. Tumor xenografts were minced with scalpels blade into small pieces and then digested in DMEM/F12 medium containing 300 units/mL collagenase (Stem Cell Technologies) and 100 units/mL hyaluronidase (Stem Cell Technologies) for 1 hr at 37° C. Cells were then washed and re-suspended to a final concentration of 10^6 cell/mL in DMEM/2% FBS. Cell suspensions from the tumor samples were incubated with PE conjugated LGR5 or CXCR4 antibody for 30 minutes and washed two times with PBS buffer and then analyzed (FIG. 18A-B). […]

HT-29 cell line = test: MTT cell proliferation assay, monolayer growth; format: cell-based, human; details: monolayer conditions
Protocol: Cell Proliferation Assay. Cell proliferation was evaluated by (3-(4,5-dimethylthiazol-2-yl)-2,5-diphenyltetrazolium bromide) MTT cell proliferation assay. For HT-29 cell line approximately 2.5×10^3 cells/100 μL/well were plated in 96-well tissue culture treated plate. After overnight incubation at 37° C. vehicle (control) or NSGM was added at the desired concentration and the cells were further incubated for 60-72 h. At the end of the incubation, 10 μL of 5 mg/mL MTT solution (Sigma) made in phosphate buffered saline (PBS) (Gibco) was added to each well and incubated for minimum of 2 to 3 hr until crystals formation was observed. Following this, 150 μL of 4 mM HCl (Sigma) in isopropanol solution was added drop wise to each well and the mixture was triturated until the crystals dissolve completely. Finally, the plate was placed on the spectrophotometer reader and read at 590 nm and growth inhibition was calculated as percent of control.

[6] = system: self-renewal factors OCT4, BMI-1, c-MYC; test: Western blot of self-renewal factors in spheroids; format: cell-based, human; details: 100 μM, HT-29
Protocol: as §3

LGR5 = test: Flow cytometry analysis of CSC markers in HT-29 spheroids; format: cell-based, human; details: 100 μM, vs vehicle-treated controls
Protocol: Flow Cytometry Analysis. Human colon cancer HT-29 cells, grown in spheroid or monolayer condition were treated with vehicle or NSGMs for 24 hours, were trypsinized and single cells were re-suspended at 10^6 cells/mL in PBS buffer. Cells were incubated with fluorophore conjugated antibody for 30 minutes at 4° C. and washed once with PBS buffer prior to analysis. Following antibody and dilution were used: LGR5-PE) (Dilution 1:50, Origene), DCLK1 (Dilution 1:33, Abeam). Cell sorting was performed using FACSAria™ II High-Speed Cell Sorter (BD Biosciences) and data were analyzed with FCS Express 4 Flow Cytometry software (De-Novo Software).

HT-29 cells [7] = test: Secondary (2°) and tertiary (3°) colonosphere assay, HT-29 (Screen 2); format: cell-based, human; details: no NSGM in 2° and 3° growth assays
Protocol: Secondary (2°) and Tertiary (3°) Colonosphere Assay. For secondary colonospheres, the 96-well plate of primary spheres was centrifuged at speed of 1000 rpm for 1 min and the supernatant was removed. Spheres that settled at the base of the plate were trypsinized with 20 μL/well and single cell suspension was prepared using vigorous mechanical dissociation. The numbers of viable cell were counted with 1:5 ratio of cell:trypan blue and then re-plated at 100 cells/[…] in SCM media in a low adhesion plate. No further treatment with NSGMs was performed. Numbers of spheres were counted as above on day 5. The same method was repeated for tertiary spheres.
The 11 sulfated NSGMs were then studied for their effect on 2° and 3° sphere formation (HT-29 and HCT-116) in Screen 2. By design, this screen reflects a test of true self-renewability of CSCs.^2,3 Single cell suspension obtained from primary spheres formed above was then cultured in the absence of NSGM.

[8] = compared to vehicle treated xenografts, flow cytometry

O=c1c(OS(=O)(=O)[O-])c(-c2ccc(OS(=O)(=O)[O-])c(OS(=O)(=O)[O-])c2)oc2cc(OS(=O)(=O)[O-])cc(OCCCOc3cc(OS(=O)(=O)[O-])cc4oc(-c5ccc(OS(=O)(=O)[O-])c(OS(=O)(=O)[O-])c5)c(OS(=O)(=O)[O-])c(=O)c34)c12.[Na+].[Na+].[Na+].[Na+].[Na+].[Na+].[Na+].[Na+] [G2.2]
mRNA levels of several CSC markers (CSC markers mRNA): marked decrease
induction of apoptosis in spheroid cells ([1]; annexin V labeling and acridine orange/ethidium bromide staining, 100 μM, 24 hours, vs vehicle): 2 to 3 fold
induction of apoptosis in CSC-poor monolayer counterparts ([1]; monolayer cells): did not induce apoptosis
reduction in tumor volume (HCT116 cells; between days 5-19, intratumoral, not statistically significant (p>0.1)): 20-42%
attenuation of CXCR4 positive cells in xenografts (HCT116 cells; [8]): ~75%
attenuation of LGR5 positive cells in xenografts (HCT116 cells; [8]): ~78%
IC50 (HT-29 cells [2]): ~58 µM
inhibition of spheroid formation, potency relative to HT-29 (HCT-116): essentially identical potency
protein expression of CSC markers (LGR5, CXCR4) ([3]; 6 hours): minimal change
protein expression of CSC markers (LGR5, CXCR4) ([3]; 24 hours): significant decrease
reduction of expression of CSC markers (CD44, CD133, EpCAM, LGR5, CXCR-4) [3]: 25-55%
inhibition of spheroid formation, potency relative to HT-29 [4]: essentially identical potency
proportion of spheroid cells in G1 phase (cell cycle progression) (HT-29 colon cancer cells): small increase
CK20 expression (colonic differentiation marker) (CK20): modest induction
overall animal weight [5]: no effect
inhibition of monolayer growth (bulk tumor cells) (HT-29 cell line): minimal effect
BMI-1 expression [6]: significant inhibition
OCT-4 levels [6]: little effect
c-MYC expression [6]: significant inhibition
reduction in LGR5 (hi) cells (LGR5): 39%

O=c1c(OS(=O)(=O)[O-])c(-c2ccc(OS(=O)(=O)[O-])c(OS(=O)(=O)[O-])c2)oc2cc(OS(=O)(=O)[O-])cc(OCCOc3cc(-c4oc5cc(OS(=O)(=O)[O-])cc(OCCOc6cc(OS(=O)(=O)[O-])cc7oc(-c8ccc(OS(=O)(=O)[O-])c(OS(=O)(=O)[O-])c8)c(OS(=O)(=O)[O-])c(=O)c67)c5c(=O)c4OS(=O)(=O)[O-])ccc3OS(=O)(=O)[O-])c12.[Na+].[Na+].[Na+].[Na+].[Na+].[Na+].[Na+].[Na+].[Na+].[Na+].[Na+] [G4.1]
reduction of expression of CSC markers (CD44, CD133, EpCAM, LGR5, CXCR-4) [3]: no effect
Screen 2 outcome (2° and 3° spheroid growth inhibition) (HT-29 cells [7]): completely failed

— patent US9850221B2, “Sulfated and unsulfated flavonoid oligomers as cancer therapeutics” (VIRGINIA COMMONWEALTH UNIVERSITY, priority 2013, dated 2017)
